Our source for the GI50 and TGI values is PubChem BioAssay (NCI).

“And” between values parts separate entries of the source, which are not always exact repeats. Equal values may be shown once.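 All cell lines were grown in 96-well plates and treated with compound for 48 hours. At the GI50, growth is halved. TGI: total growth inhibition.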 Some results are limits rather than exact numbers.

Among the test systems are K-562 leukemia; SF-268 CNS; CAKI-1 renal; MDA-MB-435; MOLT-4 leukemia; SN12C renal; OVCAR-4 ovarian; U251 CNS; LOX IMVI melanoma; SR leukemia.
Common to all, as to test: NCI anticancer screen, dose series, 48 h

Consider `COc1ccc(-c2ccc(/C=N/n3c(C)nn(CN4CCN(C)CC4)c3=S)o2)c([N+](=O)[O-])c1`, for which the GI50 in the assay on K-562 leukemia was 16.2 µM; in the assay on SF-268 CNS, 28.2 µM; in the assay with CAKI-1 renal it was 24.4 µM; in the assay on MDA-MB-435, 14.2 µM; in the assay on MOLT-4 leukemia, 20.5 µM; with SN12C renal, above 100 µM. The GI50 in the assay with OVCAR-4 ovarian was 7.91 µM. The TGI in the assay with K-562 leukemia is 42.4 µM; in the assay on SF-268 CNS, above 100 µM; in the assay on CAKI-1 renal it was above 100 µM; with MDA-MB-435 it was 31 µM; in the assay with MOLT-4 leukemia, 61.3 µM; in the assay with SN12C renal it was above 100 µM. In the assay on OVCAR-4 ovarian, this compound yielded a TGI of 35.7 µM.
On to `COc1cnc2c(c1)C(=O)c1c-2n(CCCN2CCCC2)c(=O)c2cc(F)ccc12`, for which the GI50 in the assay with U251 CNS is 0.116 µM; in the assay with K-562 leukemia, 0.263 µM; with LOX IMVI melanoma, 0.185 µM; in the assay with SF-268 CNS it was 0.411 µM; with SR leukemia, 0.144 µM; in the assay on MDA-MB-435, 0.49 µM. The GI50 in the assay on MOLT-4 leukemia was 0.0591 µM; with SN12C renal, 0.214 µM; with OVCAR-4 ovarian, 0.365 µM. In addition, the TGI with U251 CNS worked out at 0.467 µM; in the assay on K-562 leukemia it was 1.55 µM; in the assay with LOX IMVI melanoma it was 0.558 µM; with SF-268 CNS it was 13.9 µM; in the assay with SR leukemia, 1.26 µM; in the assay on MDA-MB-435, 13.9 µM. The TGI in the assay on MOLT-4 leukemia stood at 0.414 µM; with SN12C renal, 10 µM; with OVCAR-4 ovarian it was 11.3 µM.
`O=C(CCCCCCSc1nc(-c2ccc(Cl)cc2)cc(-c2ccc(Cl)cc2)n1)NO`: the GI50 is 1.63 µM in the assay on U251 CNS; 1.65 µM in the assay with K-562 leukemia; 1.28 µM with LOX IMVI melanoma; 1.7 µM with SF-268 CNS; 1.34 µM in the assay on CAKI-1 renal; 1.86 µM with MDA-MB-435. For the same compound, the GI50 in the assay with MOLT-4 leukemia was 1.5 µM; with SN12C renal, 1.6 µM; in the assay with OVCAR-4 ovarian, 1.57 µM. The TGI with U251 CNS is 6.08 µM; in the assay on K-562 leukemia, above 50 µM; with LOX IMVI melanoma it was 3.75 µM; in the assay with SF-268 CNS, 7.49 µM; with CAKI-1 renal, 4.76 µM; with MDA-MB-435 it was 13.6 µM. The TGI in the assay on MOLT-4 leukemia was above 50 µM; in the assay on SN12C renal it was 6.24 µM; with OVCAR-4 ovarian, above 50 µM.
As for `O=C(c1ccccc1)c1nc2ccc(C(F)(F)F)cc2[n+]([O-])c1C(F)(F)F`, the GI50 was 50.3 µM with U251 CNS; 18.2 µM in the assay with K-562 leukemia; 33.6 µM in the assay with LOX IMVI melanoma; 39.9 µM with SF-268 CNS; 30.4 µM with CAKI-1 renal; 43.8 µM in the assay on MDA-MB-435. For the same compound, the GI50 was 23 µM in the assay on MOLT-4 leukemia, 54 µM in the assay on SN12C renal and 22.4 µM in the assay on OVCAR-4 ovarian. Also, the TGI with U251 CNS, with K-562 leukemia, with LOX IMVI melanoma, in the assay with SF-268 CNS, in the assay with CAKI-1 renal and in the assay on MDA-MB-435 was above 100 µM in each case. Moreover, the TGI in the assay with MOLT-4 leukemia was 73.7 µM; in the assay with SN12C renal, above 100 µM; in the assay with OVCAR-4 ovarian, above 100 µM.
`CNCCCNc1nc2ccccc2c2c(=O)c3cc(Cl)ccc3sc12`: the GI50 is 1.5 µM with SF-268 CNS, 1.4 µM in the assay on CAKI-1 renal, 1.76 µM with MDA-MB-435 and 1.54 µM in the assay on SN12C renal. Besides, the TGI stood at 3.01 µM with SF-268 CNS, 2.7 µM in the assay on CAKI-1 renal, 3.19 µM in the assay on MDA-MB-435 and 2.93 µM in the assay with SN12C renal.
In the case of `O=C1c2c(O)cc(O)cc2OC(c2ccc(O)cc2O)C1O` (stereo not given), the GI50 in the assay with U251 CNS, in the assay with K-562 leukemia, in the assay on LOX IMVI melanoma, in the assay on SF-268 CNS, in the assay with SN12C renal and with OVCAR-4 ovarian was above 100 µM throughout. Besides, the TGI in the assay with U251 CNS, in the assay with K-562 leukemia, in the assay on LOX IMVI melanoma, with SF-268 CNS, in the assay on CAKI-1 renal and with MDA-MB-435 was above 100 µM in each case. Besides, the TGI with SN12C renal and with OVCAR-4 ovarian was above 100 µM in each case.
Take `Nc1nnc(Cn2c(-c3ccccc3)nc3ccc(Br)cc3c2=O)s1`: the GI50 in the assay on U251 CNS was 38.4 µM; with LOX IMVI melanoma, 26.1 µM; in the assay with SF-268 CNS, above 100 µM; in the assay on CAKI-1 renal, 25.1 µM; in the assay on MDA-MB-435 it was 45.9 µM; in the assay with MOLT-4 leukemia it was 17.7 µM. Also, the GI50 in the assay with SN12C renal is 18.1 µM; in the assay on OVCAR-4 ovarian it was above 100 µM. The TGI with U251 CNS was above 100 µM; in the assay with LOX IMVI melanoma, above 100 µM; in the assay on SF-268 CNS, above 100 µM; in the assay with CAKI-1 renal it was above 100 µM; in the assay with MDA-MB-435, above 100 µM; in the assay on MOLT-4 leukemia, 48.8 µM. The values for the TGI with SN12C renal and with OVCAR-4 ovarian were 77.6 µM and above 100 µM, respectively.
With `COc1ccc(-c2cc(=O)c3c(O)cc(C)cc3o2)cc1OC`, the TGI in the assay with U251 CNS, in the assay with K-562 leukemia, in the assay with LOX IMVI melanoma, with SF-268 CNS, with SR leukemia and in the assay on MDA-MB-435 was above 100 µM in each case. For the same compound, the TGI with MOLT-4 leukemia, with SN12C renal and in the assay on OVCAR-4 ovarian was above 100 µM throughout.
In the case of `Cc1c(NC(=O)OC[C@@H]2COCCN2)cn2ncnc(Nc3ccc4c(cnn4Cc4cccc(F)c4)c3)c12`, the GI50 with U251 CNS was 7.5 µM and 5.16 µM; in the assay with K-562 leukemia, 3.91 µM and 4.53 µM; with LOX IMVI melanoma, 5.8 µM and 5.39 µM; in the assay with SF-268 CNS, > 10 µM and 7.18 µM; in the assay with CAKI-1 renal, > 10 µM and 1.36 µM; in the assay on MDA-MB-435, > 10 µM and 9.97 µM. In addition, the GI50 in the assay on MOLT-4 leukemia is 7.63 µM and 7.76 µM; in the assay on SN12C renal, > 10 µM and 3.32 µM; with OVCAR-4 ovarian, > 10 µM and 8.04 µM. Besides, the TGI in the assay on U251 CNS is > 10 µM and 18.6 µM; with K-562 leukemia, > 10 µM and 17.1 µM; in the assay on LOX IMVI melanoma it was > 10 µM and 19.4 µM; in the assay with SF-268 CNS, > 10 µM and 24.5 µM; with CAKI-1 renal it was > 10 µM and 15.5 µM; in the assay with MDA-MB-435 it was > 10 µM and 23 µM. Further, the TGI is > 10 µM and 24.1 µM with MOLT-4 leukemia; > 10 µM and 20.4 µM with SN12C renal; > 10 µM and 27.3 µM in the assay on OVCAR-4 ovarian.
In the case of `CCOC(=O)Nc1ccc(-c2nc(-c3cccc(OC)c3)c(-c3ccnc(Br)c3)[nH]2)cc1`, the GI50 with U251 CNS is 2.44 µM; with K-562 leukemia, 2.76 µM; in the assay with LOX IMVI melanoma, 1.56 µM; in the assay with SF-268 CNS, 3.26 µM; in the assay on SR leukemia, 2.88 µM; in the assay with MDA-MB-435, 2.73 µM. The GI50 is 2.21 µM in the assay with MOLT-4 leukemia and 2.77 µM in the assay on SN12C renal. Also, the TGI with U251 CNS was above 100 µM; in the assay on K-562 leukemia, above 100 µM; with LOX IMVI melanoma it was 3.32 µM; in the assay with SF-268 CNS, above 100 µM; in the assay on SR leukemia, above 100 µM; with MDA-MB-435 it was 9.54 µM. Further, the TGI in the assay with MOLT-4 leukemia and with SN12C renal was above 100 µM each time.
Regarding `CCCCC#CC#Cc1cccc(=O)o1`, the GI50 in the assay with U251 CNS is 24.6 µM; with LOX IMVI melanoma it was 16.2 µM; with SF-268 CNS, 41.4 µM; in the assay with CAKI-1 renal, 22.5 µM; with MDA-MB-435, 22 µM; in the assay with MOLT-4 leukemia, 4.77 µM. In addition, the GI50 in the assay with SN12C renal was 15.1 µM; in the assay with OVCAR-4 ovarian, 16.4 µM. Further, the TGI with U251 CNS is 72.7 µM; in the assay on LOX IMVI melanoma, 32.3 µM; in the assay on SF-268 CNS it was above 100 µM; in the assay on CAKI-1 renal, 60 µM; with MDA-MB-435 it was 48.6 µM; with MOLT-4 leukemia, 32.1 µM. In addition, the TGI worked out at 38.8 µM in the assay on SN12C renal and 37.6 µM with OVCAR-4 ovarian.
In the case of `COC1=Nc2ccccc2S(=O)(=O)C=C1`, the TGI in the assay on U251 CNS is 24.4 µM; with LOX IMVI melanoma, 10.9 µM; in the assay on SF-268 CNS, 48.6 µM; in the assay with MDA-MB-435 it was 24.8 µM; with MOLT-4 leukemia, 2.47 µM; with SN12C renal, 31.7 µM. The compound also gave a TGI with OVCAR-4 ovarian of 27.8 µM. In addition, the GI50 in the assay on CAKI-1 renal is 0.256 µM; in the assay on MOLT-4 leukemia it was 0.489 µM and 0.44 µM.
On to `O=C([O-])c1ccc(C(=O)[O-])cc1.O=C([O-])c1ccc(C(=O)[O-])cc1.[Mo+2].[Mo+2]`, for which the GI50 with U251 CNS, in the assay with K-562 leukemia, in the assay on LOX IMVI melanoma, in the assay on SF-268 CNS, in the assay with SR leukemia and with CAKI-1 renal was above 100 µM in each case. Besides, the GI50 in the assay with MOLT-4 leukemia, in the assay on SN12C renal and with OVCAR-4 ovarian was above 100 µM each time. Further, the TGI in the assay on U251 CNS, with K-562 leukemia, in the assay with LOX IMVI melanoma, in the assay with SF-268 CNS, in the assay with SR leukemia and in the assay on CAKI-1 renal was above 100 µM in each case. Further, the TGI in the assay with MOLT-4 leukemia, with SN12C renal and with OVCAR-4 ovarian was above 100 µM each time.
Consider `CCOC(=O)NC(=O)c1cn(CCN2CCN(C(=O)CCCCCCCCCCNc3ncnc4nc[nH]c34)CC2)c(=O)[nH]c1=O`, for which the TGI in the assay on U251 CNS, with K-562 leukemia, in the assay with LOX IMVI melanoma, in the assay on SF-268 CNS, in the assay on SR leukemia and with CAKI-1 renal was above 100 µM each time. Further, the TGI in the assay on MOLT-4 leukemia, in the assay on SN12C renal and with OVCAR-4 ovarian was above 100 µM each time.
On to `COc1ccc(/C(=N/NC(N)=O)C(c2ccc(OC)cc2)C2C(=O)Oc3ccccc32)cc1` (stereo not given), for which the TGI in the assay with U251 CNS, in the assay on K-562 leukemia, with LOX IMVI melanoma, with SF-268 CNS, with SR leukemia and in the assay on CAKI-1 renal was above 100 µM in each case. Also, the TGI in the assay on MOLT-4 leukemia, in the assay on SN12C renal and in the assay on OVCAR-4 ovarian was above 100 µM throughout.
